Measurements as given in US20230212526A1, “PLURIPOTENT STEM CELL-DERIVED HEART ORGANOID” (Board of Trustees of Michigan State University, priority 2020, published 2023).

What was measured:
[1] = tested on: human heart organoids (hHOs); experiment: Cardiomyocyte differentiation in hHOs after initial CHIR99021 exposure (day 0, 24 hours), confocal TNNT2 quantification and beating; assay type: cell-based; settings: for TNNT2+ cells (cardiomyocyte content): read at day 15
Protocol: Self-assembling hHO differentiation. Accutase® (Innovative Cell Technologies) was used to dissociate PSCs for spheroid formation. After dissociation, cells were centrifuged at 300 g for 5 minutes and resuspended in Essential 8™ Flex medium containing 2 μM ROCK inhibitor Thiazovivin (Millipore Sigma). hPSCs were then counted using a Moxi Cell Counter (Orflo Technologies) and seeded at 10000 cells/well in round bottom ultra-low attachment 96-well plates (Costar) on day −2. The plate was then centrifuged at 100 g for 3 minutes and placed in an incubator at 37° C. and 5% CO2. After 24 hours (day −1), 50 μl of media was carefully removed from each well and 200 μl of fresh Essential 8™ Flex medium was added for a final volume of 250 μl/well. The plate was returned to the incubator for a further 24 hours. […] On day 1, 166 μl of media was removed and replaced with fresh RPMI 1640 with B27™ Supplement, minus insulin. On day 2, RPMI 1640 with B27™ Supplement, minus insulin containing Wnt-059 (Selleck) was added for a final concentration of 2 μM Wnt-059, and the samples were incubated for 48 hours. The media was changed on day 4 and day 6. On day 6, media was changed to RPMI 1640 with B27™ Supplement (Gibco). On day 7, a second 4 μM CHIR99021 exposure was conducted for 1 hour in RPMI 1640 with B27™ Supplement. Subsequently, media was changed every 48 hours until organoids were ready for analysis. Diabetic conditions were simulated by using basal RPMI media with 11.1 mM glucose and 58 nM insulin and compared with control media containing 3.5 mM glucose and 170 pM insulin.
Immunofluorescence. hHOs were transferred to microcentrifuge tubes (Eppendorf) using a cut 1000-μL pipette tip to avoid disruption to the organoids and fixed in 4% paraformaldehyde solution (dissolved in PBS) for 30 minutes at room temperature. Fixation was followed by three washes in PBS-Glycine (20 mM) and incubation in blocking/permeabilization solution (10% Donkey Normal Serum, 0.5% Triton™ X-100, 0.5% BSA in PBS) on a thermal mixer (Thermo Scientific) at 300 RPM at 4° C. overnight. hHOs were then washed three times in PBS and incubated with primary antibodies (see Table 1) in Antibody Solution (1% Donkey Normal Serum, 0.5% Triton™ X-100, 0.5% BSA in PBS) on a thermal mixer at 300 RPM at 4° C. for 24 hours. […]
(§1) Confocal microscopy and image analysis. Samples were imaged using two confocal laser scanning microscopes (Nikon Instruments A1 Confocal Laser Microscope; Zeiss LSM 880 NLO Confocal Microscope System) and images were analyzed using Fiji (hypertext transfer protocol secure//imagej.net/Fiji). For tissue region quantification in the organoids, DAPI positive cells were used for normalization against the target cell marker of interest across three z-planes throughout each organoid. […]

[2] = tested on: human heart organoids (hHOs); experiment: Second CHIR99021 exposure on day 7: epicardial cell and cardiomyocyte formation in hHOs (confocal quantification); assay type: cell-based
Protocol: Self-assembling hHO differentiation. Accutase® (Innovative Cell Technologies) was used to dissociate PSCs for spheroid formation. After dissociation, cells were centrifuged at 300 g for 5 minutes and resuspended in Essential 8™ Flex medium containing 2 μM ROCK inhibitor Thiazovivin (Millipore Sigma). hPSCs were then counted using a Moxi Cell Counter (Orflo Technologies) and seeded at 10000 cells/well in round bottom ultra-low attachment 96-well plates (Costar) on day −2. The plate was then centrifuged at 100 g for 3 minutes and placed in an incubator at 37° C. and 5% CO2. After 24 hours (day −1), 50 μl of media was carefully removed from each well and 200 μl of fresh Essential 8™ Flex medium was added for a final volume of 250 μl/well. The plate was returned to the incubator for a further 24 hours. On day 0, 166 μl (approximately ⅔ of total well volume) of media was removed from each well and 166 μl of RPMI 1640 with B27™ Supplement, minus insulin (Gibco) containing CHIR99021 (Selleck) was added at a final concentration of 4 μM/well along with BMP4 at 0.36 pM (1.25 ng/ml) and ActA at 0.08 pM (1 ng/ml) for 24 hours. On day 1, 166 μl of media was removed and replaced with fresh RPMI 1640 with B27™ Supplement, minus insulin. On day 2, RPMI 1640 with B27™ Supplement, minus insulin containing Wnt-059 (Selleck) was added for a final concentration of 2 μM Wnt-059, and the samples were incubated for 48 hours. The media was changed on day 4 and day 6. On day 6, media was changed to RPMI 1640 with B27™ Supplement (Gibco). […] Subsequently, media was changed every 48 hours until organoids were ready for analysis. Diabetic conditions were simulated by using basal RPMI media with 11.1 mM glucose and 58 nM insulin and compared with control media containing 3.5 mM glucose and 170 pM insulin.
Immunofluorescence. hHOs were transferred to microcentrifuge tubes (Eppendorf) using a cut 1000-μL pipette tip to avoid disruption to the organoids and fixed in 4% paraformaldehyde solution (dissolved in PBS) for 30 minutes at room temperature. […]
as §1

[3] = tested on: FlipGFP transgenic iPSC-L1 derived hHOs; experiment: FlipGFP apoptosis reporter in hHOs (effector caspase activation); assay type: cell-based, human; settings: 5 μM doxorubicin, positive control
Protocol: Lentiviral transduction. FlipGFP plasmid (Vector Builder) was transduced into a L1 iPSC line using a ZymoPURE™ II Plasmid Midiprep Kit (Fisher Scientific) according to manufacturer instructions. HEK293t were cultured in D10 media (DMEM+10% FBS+1% P/S) and later switched with reduced serum OptiMem™ (Gibco, Fisher Scientific) for 1 hour. Lipofectamine mixture (100 μl Lipofectamine 2000 (Thermo Fisher Scientific)+4 ml OptiMem™ sitting at room temperature for 5 minutes) was mixed with PLUS™ reagent mixture (200 μl PLUS™ reagent (Invitrogen, Fisher Scientific)+4 ml OptiMem™+20 μg lentiCRISPR plasmid+10 μg pMD2.gpVSVg (or pVSVgpMD2.g)+15 μg psPAX2) and was then added to the HEK293t cells and allowed to incubate at 37° C. for 6 hours. Following this, the media was changed to 30 ml D10+1% BSA per flask, without antibiotics. After 48-60 hours, the media was collected and centrifuged at 3000 rpm at 4° C. for 10 minutes. The supernatant was transferred to an Amicon® Filter Unit (Millipore-Sigma) and spun in a tabletop centrifuge at 3200 g for 30 minutes at 4° C. The flow through was dumped, and the process was repeated. The concentrated virus was aliquoted and stored at −80° C. Virus aliquot and polybrene (Fisher Scientific) were thawed at 37° C. Virus and polybrene were delivered to iPSC-L1s at low- to mid-confluences and incubated overnight. […]

[4] = single 2 μM CHIR99021 for 1 hour on day 7, read at day 15

| Structure (SMILES) | TNNT2+ cells (cardiomyocyte content) ([1]; 4 μM CHIR99021 on day 0 for 24 hours) | functional properties (beats per minute, percentage of beating hHOs) ([1]; 4 μM versus 6.6 μM and 8 μM CHIR99021) | TNNT2+ cells (cardiomyocyte content) ([1]; 6.6 μM CHIR99021 on day 0 for 24 hours) | TNNT2+ cells (cardiomyocyte content) ([1]; 8 μM CHIR99021 on day 0 for 24 hours) | formation of cardiac cell types other than epicardial cells (cardiomyocytes) ([2]; high concentrations or long exposure times of second exposure) | formation of proepicardium and epicardial cells ([2]; second exposure on day 7, 2-8 μM, 1-48 hours) | cardiomyocytes (TNNT2+ area) [2, 4] | epicardial cells (WT1+/TJP1+ area) [2, 4] | apoptosis (FlipGFP fluorescence) [3] | apoptosis (FlipGFP fluorescence) ([3]; listed as Doxorubicin) |
| --- | --- | --- | --- | --- | --- | --- | --- | --- | --- | --- |
| Cc1c[nH]c(-c2cnc(NCCNc3ccc(C#N)cn3)nc2-c2ccc(Cl)cc2Cl)n1 [CHIR99021] | 64±5% | best functional properties of the three concentrations | 9.6±5% | 2.4±2% | marked inhibition | robustly promoted the formation of proepicardium and epicardial cells | 60% | 10-20% |  |  |
| COc1cccc2c1C(=O)c1c(O)c3c(c(O)c1C2=O)C[C@@](O)(C(=O)CO)C[C@@H]3O[C@H]1C[C@H](N)[C@H](O)[C@H](C)O1 [doxorubicin] |  |  |  |  |  |  |  |  | high apoptosis | evident signs of cell death |
